Measurements published in patent US20110218343A1, “SMALL MOLECULE INHIBITORS OF ROTAMASE ENZYME ACTIVITY” (GLIAMED, INC., priority 1995, published 2011).

Columns and labels:
[1] = tested on: chick dorsal root ganglia (DRG) explants; assay: Neurite outgrowth in chick dorsal root ganglion cultures; assay type: cell-based; details: whole ganglion explants from ten day chick embryos; neurites counted 48 hours after drug treatment
Method: Dorsal root ganglia were dissected from chick embryos of ten day gestation. Whole ganglion explants were cultured on thin layer Matrigel-coated 12 well plates with Liebovitz L15 plus high glucose media supplemented with 2 mM glutamine and 10% fetal calf serum, and also containing 10 μM cytosine .β-D arabinofuranoside (Ara C) at 37° C. in an environment containing 5% CO2. Twenty-four hours later, the DRGs were treated with various concentrations of nerve growth factor, immunophilin ligands or combinations of NFG plus drugs. Forty-eight hours after drug treatment, the ganglia were visualized under phase contrast or Hoffman Modulation contrast with a Zeiss Axiovert inverted microscope. Photomicrographs of the explants were made, and neurite outgrowth was quantitated. Neurites longer than the DRG diameter were counted as positive, with total number of neurites quantitated per each experimental condition. Three to four DRGs are cultured per well, and each treatment was performed in duplicate.

[2] = molecular target: FKBP (Homo sapiens, UniProt P62942); assay: FKBP rotamase (peptidyl-prolyl isomerase) inhibition, chymotrypsin-coupled assay; assay type: biochemical; details: apparent Ki; cis-trans isomerization of model substrate N-succinyl-Ala-Ala-Pro-Phe-p-nitroanilide, absorbance at 390 nm
FKBP, sequence (P62942 whole entry): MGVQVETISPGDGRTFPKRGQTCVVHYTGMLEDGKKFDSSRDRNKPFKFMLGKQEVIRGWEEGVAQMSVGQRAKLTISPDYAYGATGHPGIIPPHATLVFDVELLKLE

Compound	ED50 (Neurite Outgrowth in Chick DRG) [1] [nM]	Ki [2] [nM]
CCC(C)(C)C(=O)C(=O)N1CCC[C@H]1C(=O)OCCCc1ccccc1 [Example 4, 3-phenyl-1-propyl(2S)-1-(3,3-dimethyl-1,2-dioxopentyl)-2-pyrrolidinecarboxylate]	53	
CCC(C)(C)C(=O)C(=O)N1CCC[C@H]1C(=O)OCCCc1cc(OC)c(OC)c(OC)c1 [Example 6, 3-(3,4,5-Trimethoxyphenyl)-1-propyl(2S)-1-(3,3-dimethyl-1,2-dioxopentyl)-2-pyrrolidinecarboxylate]	149	
CCC(C)(C)C(=O)C(=O)N1CCC[C@H]1C(=O)OC/C=C/c1cc(OC)c(OC)c(OC)c1 [Example 7, 3-(3,4,5-Trimethoxyphenyl)-1-prop-2-(E)-enyl(2S)-1-(3,3-dimethyl-1,2-dioxopentyl)-2-pyrrolidinecarboxylate]	190	
CCC(C)(C)C(=O)C(=O)N1CCC[C@H]1C(=O)OC/C=C/c1ccc(Cl)c(Cl)c1 [Example 8, 3-(4,5-Dichlorophenyl)-1-prop-2-(E)-enyl(2S) -1-(3,3-dimethyl-1,2-dioxopentyl)-2-pyrrolidinecarboxylate]	850	
CCC(C)(C)C(=O)C(=O)N1CCC[C@H]1C(=O)OC/C=C/c1ccc2c(c1)OCO2 [Example 9, 3-(4,5-Methylenedioxyphenyl)-1-prop-2-(E)-enyl(2S)-1-(3,3-dimethyl-1,2-dioxopentyl)-2-pyrrolidinecarboxylate]	75	
CCOC(=O)[C@H](Cc1ccccc1)NC(=O)[C@@H]1CCCN1C(=O)C(=O)C(C)(C)CC [Example 24, 1-[1-(3,3-dimethyl-1,2-dioxopentyl)-L-proline]-L-phenylalanine ethyl ester]		9000
